Test system: Human coronary smooth muscles cells (HCASMC)
Assay: Human coronary artery smooth muscle cell proliferation inhibition
Format: cell-based
Details: day four, both cell culture schemes, FIGS. 6 and 7
Procedure: Inhibition of Human Coronary Artery Smooth Muscle Cells by Geldanamycin
1. Human coronary smooth muscles cells (HCASMC) were obtained from Clonetics, a division of Cambrex, Inc.
2. HCASMA basal media, supplied by Clonetics and supplemented with fetal bovine serum, insulin, hFGF-B (human fibroblast growth factor) hEGF (human epidermal growth factor).
Human coronary smooth muscles cells (HCASMC) were seeded in 24 well polystyrene tissue culture plates at a density of 5×10^3 cells per well. Two different feeding and reading strategies were employed. Strategy 1: Cells were plated in cell culture media containing various concentrations of geldanamycin (see Table 1) and incubated at 37° C. for 48 hours. After the initial 48 hour incubation, the geldanamycin containing plating media was changed and the cells were fed with drug free media and incubated for an additional 48 hours and then read.
Strategy 2: Cells were plated in cell culture media containing various concentrations of geldanamycin (see Table 1) and incubated at 37° C. for 48 hours. After the initial 48 hours incubation, the geldanamycin-containing plating media was changed and the cells were fed with geldanamycin-containing media and incubated for an additional 48 hours and then read. […]
On day four cultures were analyzed to determine the proliferation inhibition effects of geldanamycin. […]

## COC1=C2C[C@@H](C)C[C@H](OC)[C@H](O)[C@@H](C)/C=C(\C)[C@H](OC(N)=O)[C@@H](OC)/C=C\C=C(/C)C(=O)NC(=CC1=O)C2=O [geldanamycin]
Geldanamycin 0.9 nM
  HCASMC inhibition (percent inhibition of proliferation): > 50%
Geldanamycin 50 nM
  HCASMC inhibition (percent inhibition of proliferation): ~100%
